Test results: patent publication US6872690B2, “Herbicidal 2-alkynyl-pyri (mi) dines” (WYETH, priority 2001, dated 2005)

Experiments:
Assay type in all cases: in vivo
Setaria viridis [1] = assay: Post-emergence herbicidal activity test; conditions: 2-4 weeks after treatment
Procedure: (§1) To evaluate their herbicidal activity, compounds according to the invention are tested using a representative range of plants:
(§2) These acetone solutions are diluted with water and the resulting formulations applied at dosage levels equivalent of about 0.025 to 0. 4 kg per hectare of test compound per pot. After spraying the plants are placed on greenhouse benches and are cared for in the usual manner, commensurate with conventional greenhouse practices. From 2 to 4 weeks after treatment, the seedling plants are examined and rated according to the rating system provided above.

Galium aparine [2] = assay: Post-emergence herbicidal activity test; conditions: 2-4 weeks after treatment
Procedure: as §1, §2

Digitaria sanguinalis [3] = assay: Post-emergence herbicidal activity test; conditions: 2-4 weeks after treatment
Procedure: as §1, §2

Zea mays [4] = assay: Post-emergence herbicidal activity test; conditions: 2-4 weeks after treatment
Procedure: as §1, §2

Stellaria media [5] = assay: Post-emergence herbicidal activity test; conditions: 2-4 weeks after treatment
Procedure: as §1, §2

Matricaria inodora [6] = assay: Post-emergence herbicidal activity test; conditions: 2-4 weeks after treatment
Procedure: as §1, §2

Abutilon theophrasti [7] = assay: Post-emergence herbicidal activity test; conditions: 2-4 weeks after treatment
Procedure: as §1, §2

Orysa sativa [8] = assay: Post-emergence herbicidal activity test; conditions: 2-4 weeks after treatment
Procedure: as §1, §2

Cassia obtusifolia [9] = assay: Post-emergence herbicidal activity test; conditions: 2-4 weeks after treatment
Procedure: as §1, §2

Glycine max [10] = assay: Post-emergence herbicidal activity test; conditions: 2-4 weeks after treatment
Procedure: as §1, §2

Ipomoea hederacea [11] = assay: Post-emergence herbicidal activity test; conditions: 2-4 weeks after treatment
Procedure: as §1, §2

Triticum aestivum [12] = assay: Post-emergence herbicidal activity test; conditions: 2-4 weeks after treatment
Procedure: as §1, §2

Echinochloa crus-galli [13] = assay: Post-emergence herbicidal activity test; conditions: 2-4 weeks after treatment
Procedure: as §1, §2

Alopecurus myosuroides [14] = assay: Post-emergence herbicidal activity test; conditions: 2-4 weeks after treatment
Procedure: as §1, §2

Setaria viridis [15] = assay: Pre-emergence test; conditions: 3 weeks after treatment
Procedure: as §1
(§3) The pre-emergence tests involve spraying a liquid formulation of the compound onto the soil in which the seeds of the plant species mentioned above has recently been sown.
(§4) The soil used in the tests is a prepared horticultural loam. The formulations used in the tests are prepared from solutions of the test compounds in acetone containing 0.4% by weight of an alkyl-phenol/ethylene oxide condensate available under the trade mark TRITON X-155. These acetone solutions are diluted with water and the resulting formulations applied at dosage levels corresponding to 0.013 kg, 0.025 kg, 0.100 kg or 0.400 kg of active material per hectare in a volume equivalent to 900 litres per hectare. In these tests untreated sown soil are used as controls. From 2 to 4 weeks after treatment, the tests are terminated and each pot is examined and rated according to the rating system set forth below: […]

Galium aparine [16] = assay: Pre-emergence test; conditions: 3 weeks after treatment
Procedure: as §1, §3, §4

Digitaria sanguinalis [17] = assay: Pre-emergence test; conditions: 3 weeks after treatment
Procedure: as §1, §3, §4

Zea mays [18] = assay: Pre-emergence test; conditions: 3 weeks after treatment
Procedure: as §1, §3, §4

Stellaria media [19] = assay: Pre-emergence test; conditions: 3 weeks after treatment
Procedure: as §1, §3, §4

Matricaria inodora [20] = assay: Pre-emergence test; conditions: 3 weeks after treatment
Procedure: as §1, §3, §4

Abutilon theophrasti [21] = assay: Pre-emergence test; conditions: 0.400 kg/ha, 3 weeks after treatment
Procedure: as §1, §3, §4

Orysa sativa [22] = assay: Pre-emergence test; conditions: 3 weeks after treatment
Procedure: as §1, §3, §4

Cassia obtusifolia [23] = assay: Pre-emergence test; conditions: 3 weeks after treatment
Procedure: as §1, §3, §4

Glycine max [24] = assay: Pre-emergence test; conditions: 0.400 kg/ha, 3 weeks after treatment
Procedure: as §1, §3, §4

Lamium purpureum = assay: Pre-emergence test; conditions: 3 weeks after treatment
Procedure: as §1, §3, §4

Ipomoea hederacea [25] = assay: Pre-emergence test; conditions: 0.400 kg/ha, 3 weeks after treatment
Procedure: as §1, §3, §4

Triticum aestivum [26] = assay: Pre-emergence test; conditions: 3 weeks after treatment
Procedure: as §1, §3, §4

Echinochloa crus-galli [27] = assay: Pre-emergence test; conditions: 3 weeks after treatment
Procedure: as §1, §3, §4

Alopecurus myosuroides [28] = assay: Pre-emergence test; conditions: 3 weeks after treatment
Procedure: as §1, §3, §4

SMILES: Cn1nc(C(F)(F)F)cc1Oc1cccc(C#Cc2ccccc2)n1 [Example 31]
- Post-emergence application SETVI (Setaria viridis [1]; 0.100 kg/ha): 5 (5-Definite injury)
- Post-emergence application SETVI (Setaria viridis [1]; 0.400 kg/ha): 7 (7-Good herbicidal effect)
- Post-emergence application GALAP (Galium aparine [2]; 0.100 kg/ha): 4 (4-Injury)
- Post-emergence application GALAP (Galium aparine [2]; 0.400 kg/ha): 6 (6-Herbicidal effect)
- Post-emergence application DIGSA (Digitaria sanguinalis [3]; 0.100 kg/ha): 4 (4-Injury)
- Post-emergence application DIGSA (Digitaria sanguinalis [3]; 0.400 kg/ha): 4 (4-Injury)
- Post-emergence application ZEAMX (Zea mays [4]; 0.100 kg/ha): 2 (2-Slight effect)
- Post-emergence application ZEAMX (Zea mays [4]; 0.400 kg/ha): 3 (3-Moderate effect)
- Post-emergence application STEME (Stellaria media [5]; 0.100 kg/ha): 5 (5-Definite injury)
- Post-emergence application STEME (Stellaria media [5]; 0.400 kg/ha): 6 (6-Herbicidal effect)
- Post-emergence application MATIN (Matricaria inodora [6]; 0.100 kg/ha): 3 (3-Moderate effect)
- Post-emergence application MATIN (Matricaria inodora [6]; 0.400 kg/ha): 4 (4-Injury)
- Post-emergence application ABUTH (Abutilon theophrasti [7]; 0.100 kg/ha): 3 (3-Moderate effect)
- Post-emergence application ABUTH (Abutilon theophrasti [7]; 0.400 kg/ha): 5 (5-Definite injury)
- Post-emergence application ORYSA (Orysa sativa [8]; 0.100 kg/ha): 1 (1-Trace effect)
- Post-emergence application ORYSA (Orysa sativa [8]; 0.400 kg/ha): 2 (2-Slight effect)
- Post-emergence application CASOB (Cassia obtusifolia [9]; 0.100 kg/ha): 6 (6-Herbicidal effect)
- Post-emergence application CASOB (Cassia obtusifolia [9]; 0.400 kg/ha): 6 (6-Herbicidal effect)
- Post-emergence application GLXMA (Glycine max [10]; 0.100 kg/ha): 4 (4-Injury)
- Post-emergence application GLXMA (Glycine max [10]; 0.400 kg/ha): 4 (4-Injury)
- Post-emergence application IPOHE (Ipomoea hederacea [11]; 0.100 kg/ha): 7 (7-Good herbicidal effect)
- Post-emergence application IPOHE (Ipomoea hederacea [11]; 0.400 kg/ha): 8 (8-Approaching complete kill)
- Post-emergence application TRZWA (Triticum aestivum [12]; 0.100 kg/ha): 1 (1-Trace effect)
- Post-emergence application TRZWA (Triticum aestivum [12]; 0.400 kg/ha): 2 (2-Slight effect)
- Post-emergence application ECHCG (Echinochloa crus-galli [13]; 0.100 kg/ha): 3 (3-Moderate effect)
- Post-emergence application ECHCG (Echinochloa crus-galli [13]; 0.400 kg/ha): 5 (5-Definite injury)
- Post-emergence application ALOMY (Alopecurus myosuroides [14]; 0.100 kg/ha): 3 (3-Moderate effect)
- Post-emergence application ALOMY (Alopecurus myosuroides [14]; 0.400 kg/ha): 5 (5-Definite injury)
- Assessment (pre-emergence application) SETVI (Setaria viridis [15]; 0.025 kg/ha): 2 (2-Slight effect)
- Assessment (pre-emergence application) SETVI (Setaria viridis [15]; 0.100 kg/ha): 6 (6-Herbicidal effect)
- Assessment (pre-emergence application) SETVI (Setaria viridis [15]; 0.400 kg/ha): 8 (8-Approaching complete kill)
- Assessment (pre-emergence application) GALAP (Galium aparine [16]; 0.025 kg/ha): 1 (1-Trace effect)
- Assessment (pre-emergence application) GALAP (Galium aparine [16]; 0.100 kg/ha): 2 (2-Slight effect)
- Assessment (pre-emergence application) DIGSA (Digitaria sanguinalis [17]; 0.025 kg/ha): 2 (2-Slight effect)
- Assessment (pre-emergence application) DIGSA (Digitaria sanguinalis [17]; 0.100 kg/ha): 5 (5-Definite injury)
- Assessment (pre-emergence application) DIGSA (Digitaria sanguinalis [17]; 0.400 kg/ha): 8 (8-Approaching complete kill)
- Assessment (pre-emergence application) ZEAMX (Zea mays [18]; 0.025 kg/ha): 1 (1-Trace effect)
- Assessment (pre-emergence application) ZEAMX (Zea mays [18]; 0.100 kg/ha): 2 (2-Slight effect)
- Assessment (pre-emergence application) ZEAMX (Zea mays [18]; 0.400 kg/ha): 2 (2-Slight effect)
- Assessment (pre-emergence application) STEME (Stellaria media [19]; 0.025 kg/ha): 2 (2-Slight effect)
- Assessment (pre-emergence application) STEME (Stellaria media [19]; 0.100 kg/ha): 8 (8-Approaching complete kill)
- Assessment (pre-emergence application) STEME (Stellaria media [19]; 0.400 kg/ha): 9 (9-Complete kill)
- Assessment (pre-emergence application) MATIN (Matricaria inodora [20]; 0.025 kg/ha): 2 (2-Slight effect)
- Assessment (pre-emergence application) MATIN (Matricaria inodora [20]; 0.100 kg/ha): 6 (6-Herbicidal effect)
- Assessment (pre-emergence application) MATIN (Matricaria inodora [20]; 0.400 kg/ha): 7 (7-Good herbicidal effect)
- Assessment (pre-emergence application) ABUTH (Abutilon theophrasti [21]): 2 (2-Slight effect)
- Assessment (pre-emergence application) ORYSA (Orysa sativa [22]; 0.025 kg/ha): 0 (0-No effect)
- Assessment (pre-emergence application) ORYSA (Orysa sativa [22]; 0.100 kg/ha): 1 (1-Trace effect)
- Assessment (pre-emergence application) ORYSA (Orysa sativa [22]; 0.400 kg/ha): 1 (1-Trace effect)
- Assessment (pre-emergence application) CASOB (Cassia obtusifolia [23]; 0.025 kg/ha): 1 (1-Trace effect)
- Assessment (pre-emergence application) CASOB (Cassia obtusifolia [23]; 0.100 kg/ha): 3 (3-Moderate effect)
- Assessment (pre-emergence application) CASOB (Cassia obtusifolia [23]; 0.400 kg/ha): 3 (3-Moderate effect)
- Assessment (pre-emergence application) GLXMA (Glycine max [24]): 1 (1-Trace effect)
- Assessment (pre-emergence application) LAMPU (Lamium purpureum; 0.025 kg/ha): 7 (7-Good herbicidal effect)
- Assessment (pre-emergence application) LAMPU (Lamium purpureum; 0.100 kg/ha): 8 (8-Approaching complete kill)
- Assessment (pre-emergence application) LAMPU (Lamium purpureum; 0.400 kg/ha): 8 (8-Approaching complete kill)
- Assessment (pre-emergence application) IPOHE (Ipomoea hederacea [25]): 2 (2-Slight effect)
- Assessment (pre-emergence application) TRZWA (Triticum aestivum [26]; 0.025 kg/ha): 0 (0-No effect)
- Assessment (pre-emergence application) TRZWA (Triticum aestivum [26]; 0.100 kg/ha): 0 (0-No effect)
- Assessment (pre-emergence application) TRZWA (Triticum aestivum [26]; 0.400 kg/ha): 0 (0-No effect)
- Assessment (pre-emergence application) ECHCG (Echinochloa crus-galli [27]; 0.025 kg/ha): 0 (0-No effect)
- Assessment (pre-emergence application) ECHCG (Echinochloa crus-galli [27]; 0.100 kg/ha): 2 (2-Slight effect)
- Assessment (pre-emergence application) ECHCG (Echinochloa crus-galli [27]; 0.400 kg/ha): 5 (5-Definite injury)
- Assessment (pre-emergence application) ALOMY (Alopecurus myosuroides [28]; 0.025 kg/ha): 0 (0-No effect)
- Assessment (pre-emergence application) ALOMY (Alopecurus myosuroides [28]; 0.100 kg/ha): 1 (1-Trace effect)
- Assessment (pre-emergence application) ALOMY (Alopecurus myosuroides [28]; 0.400 kg/ha): 3 (3-Moderate effect)
